Results on 2 compounds are retold here after US9481669B2, “Pladienolide pyridine compounds and methods of use” (Eisai R&D Management Co., Ltd., priority 2014, dated 2016).

The conditions of data set [1]: patients; administered as intravenous infusion; cited from earlier work.
Data set [2] can be described thus: pH stability measurement (UPLC, 0.1 N HCl). The format is physicochemical. The note with it: buffer, 24 h, 148 µM, pH 1. How it is done: Compounds were provided in 96-well plates and tested in triplicate. Four microliters of a 10 mM stock solution of compound in DMSO were distributed into each of three wells. The plate was stored at or below −20° C. until the day of the analysis. Methanol (HPLC grade) and 0.1 N HCl (EMD catalog HX0603A-6) were used for dilutions. Acetonitrile (HPLC grade), water (Milli-Q filtered), trifluoroacetic acid (spectral grade) and 0.2M phosphate buffer (Wako, catalog no. 163-14471) were used to prepare the mobile phase for the two analyses.
Stability data was obtained using a Waters Acquity UPLC equipped with a UV detector (Waters TUV) and single quadrupole MS detector (Waters SQD). The 96-well plate containing the compound(s) of interest was(were) removed from the freezer and allowed to warm to room temperature for one hour. The UPLC was primed, equilibrated and the system performance was verified by injecting a standard. After 1 hour, each of the three wells was diluted with 266 μL 0.1 N HCl to give pH=1. The plate was covered and placed on a shaker (Eppindorf Thermomixer R) for 45 minutes at 600 rpm. The plate was removed from the shaker, and the contents of each well were filtered through a filtration plate (Millipore catalog no. MSSLBPC50) by vacuum and injected into the UPLC. After approximately 24 hours, the contents of the wells were re-injected into the UPLC.
Stability in the various buffers was measured by comparing the peak area- % of the analyte in methanol versus the peak area- % of the analyte at the same retention time in 0.1 N HCl buffer in the 24 hr time point injection.

In the next data set the test system is U251 human glioma cells. The note with it: U251 human glioma cells in vitro; read-out: IC50, glioma cell proliferation; cited from earlier work.
In data set [3] the test system is reporter gene controlled by human VEGF promoter. The note with it: read-out: IC50, VEGF-promoted gene expression; cited from earlier work.
Data set [4] relates to WiDr-R cells (colon cancer cells, SF3B1 R1074H mutation). The note with it: cited from earlier work.

Take `CCC(O)C(C)C1OC1CC(C)(O)/C=C/C=C(\C)C1OC(=O)CC(O)CCC(C)(O)C(OC(=O)N2CCN(C3CCCCCC3)CC2)/C=C/C1C` (centres unmarked) [Compound E7107, (8E,12E,14E)-7-((4-Cycloheptylpiperazin-1-yl)carbonyl)oxy-3,6,16,21-tetrahydroxy-6,10,12,16,20-pentamethyl-18,19-epoxytricosa-8,12,14-trien-11-olide, reference compound]: in data set [1], the oral bioavailability entry is on record as “insufficient oral bioavailability”. Further, the “% parent remaining (pH = 1, 24 hours)” value in data set [2] is given as 44%.

Pladienolide B: the IC50 in the data set on U251 human glioma cells is 3.5 nM; in data set [3], 1.8 nM. Also, the “resistance of WiDr-R cells in terms of growth inhibition” value in data set [4] is reported as “resistant to pladienolide B in terms of growth inhibition”.
